Experimental data as given in ChEMBL document CHEMBL3046054, “Chemico-biological investigation of rhizome essential oil of Zingiber morannative to Northeast India” (Med Chem Res, 2013).
Values after ≈ are worked out from the molar mass of the structure shown. Active and inactive are the calls of the source. The rule behind the calls is not given here.

How the values were obtained:
HeLa [1] = test: Induction of apoptosis in Homo sapiens (human) HeLa cells assessed as loss of cell to cell contact at <55 ug/ml after 24 hr by light microscopic analysis; type: functional, cell-based
HeLa [2] = test: Induction of apoptosis in Homo sapiens (human) HeLa cells assessed as apoptotic bodies at <55 ug/ml after 24 hr by light microscopic analysis; type: functional, cell-based
HeLa [3] = test: Induction of necrosis in Homo sapiens (human) HeLa cells assessed as increase in cytoplasmic vacuolization at >50 ug/ml after 24 hr by light microscopic analysis; type: functional, cell-based
HeLa [4] = test: Induction of necrosis in Homo sapiens (human) HeLa cells assessed as dissolution of nuclear membrane at >50 ug/ml after 24 hr by light microscopic analysis; type: functional, cell-based
HeLa [5] = test: Induction of necrosis in Homo sapiens (human) HeLa cells assessed as chromatin flocculation at >50 ug/ml after 24 hr by light microscopic analysis; type: functional, cell-based
HeLa [6] = test: Induction of necrosis in Homo sapiens (human) HeLa cells assessed as increase in nucleus volume at >50 ug/ml after 24 hr by light microscopic analysis; type: functional, cell-based
HeLa [7] = test: Induction of necrosis in Homo sapiens (human) HeLa cells assessed as increase in cytoplasmic volume at >50 ug/ml after 24 hr by light microscopic analysis; type: functional, cell-based
HeLa [8] = test: Growth inhibition of Homo sapiens (human) HeLa cells at 10 to 30 ug/ml up to 3 days by MTT assay; type: functional
HeLa [9] = test: Cytotoxicity against Homo sapiens (human) HeLa cells assessed as decrease in cell viability at 10 to 100 ug/ml after 24 hr by acridine orange/ethidium bromide-based inverted fluorescence microscopic analysis; type: functional
HeLa [10] = test: Induction of apoptosis in Homo sapiens (human) HeLa cells assessed as detachment from substratum at <55 ug/ml after 24 hr by light microscopic analysis; type: functional, cell-based
HeLa [11] = test: Induction of apoptosis in Homo sapiens (human) HeLa cells assessed as floating cells at 10 to 50 ug/ml after 24 hr by light microscopic analysis; type: functional, cell-based
HeLa [12] = test: Induction of apoptosis in Homo sapiens (human) HeLa cells assessed as membrane blebbing at <55 ug/ml after 24 hr by light microscopic analysis; type: functional, cell-based
HeLa [13] = test: Induction of necrosis in Homo sapiens (human) HeLa cells assessed as dissolution of cytoplasmic membrane at >50 ug/ml after 24 hr by light microscopic analysis; type: functional, cell-based
HeLa [14] = test: Induction of apoptosis in Homo sapiens (human) HeLa cells assessed as fragmented nuclei at 10 to 100 ug/ml after 24 hr by acridine orange/ethidium bromide-based inverted fluorescence microscopic analysis; type: functional, cell-based
HeLa [15] = test: Cytotoxicity against Homo sapiens (human) HeLa cells assessed as cell death at 10 to 100 ug/ml after 48 hr by light microscopic analysis; type: functional, cell-based
HeLa [16] = test: Cytotoxicity against Homo sapiens (human) HeLa cells up to 3 days by MTT assay; type: functional, cell-based; settings: for IC50: 72 h
HeLa [17] = test: Induction of apoptosis in Homo sapiens (human) HeLa cells assessed as rounded cells at 10 to 100 ug/ml after 48 hr by light microscopic analysis; type: functional, cell-based
HeLa [18] = test: Induction of apoptosis in Homo sapiens (human) HeLa cells assessed as rounded cells at 10 to 50 ug/ml after 24 hr by light microscopic analysis; type: functional, cell-based
HeLa [19] = test: Induction of apoptosis in Homo sapiens (human) HeLa cells assessed as membrane blebbing at <40 ug/ml after 24 hr by light microscopic analysis; type: functional, cell-based
HeLa [20] = test: Induction of apoptosis in Homo sapiens (human) HeLa cells assessed as loss of cell to cell contact at <40 ug/ml after 24 hr by light microscopic analysis; type: functional, cell-based
HeLa [21] = test: Induction of apoptosis in Homo sapiens (human) HeLa cells assessed as apoptotic bodies at <40 ug/ml after 24 hr by light microscopic analysis; type: functional, cell-based
HeLa [22] = test: Induction of apoptosis in Homo sapiens (human) HeLa cells assessed as detachment from substratum at <40 ug/ml after 24 hr by light microscopic analysis; type: functional, cell-based

Row | Structure (SMILES) | Activity (HeLa [3]) | Activity (HeLa [4]) | Activity (HeLa [5]) | Activity (HeLa [6]) | Activity (HeLa [7]) | growth inhibition (GI) (HeLa [8]) [%] | Activity (HeLa [9]) | Activity (HeLa [11]) | Activity (HeLa [13]) | Activity (HeLa [14]) | Activity (HeLa [15]) | Activity (HeLa [16]) | IC50 (HeLa [16]) [mg/L] | Activity (HeLa [17]) | Activity (HeLa [18]) | Activity (HeLa [19]) | Activity (HeLa [20]) | Activity (HeLa [21]) | Activity (HeLa [22]) | other results
1 | C=CC(C)(O)CCC=C(C)C (configuration not stated) [LINALOOL] | Active | Active | Active | Active | Active | 60 | Active | Active | Active | Active | Active | Dose-dependent effect | 55.4 (≈ 359 µM) | Active | Active | – | – | – | – | Activity (HeLa [1]): Active; Activity (HeLa [2]): Active; Activity (HeLa [10]): Active; Activity (HeLa [12]): Active
2 | C=C1C2CCC(C2)C1(C)C (configuration not stated) [CAMPHENE] | Active | Active | Active | Active | Active | 60 | Active | Active | Active | Active | Active | Dose-dependent effect | 38.5 (≈ 283 µM) | Active | Active | Active | Active | Active | Active | –
3 | CC(C)=CCCC(C)=CC=O | Active | Active | Active | Active | Active | 60 | Active | Active | Active | Active | Active | Dose-dependent effect | 39.6 (≈ 260 µM) | Active | Active | Active | Active | Active | Active | –
